# Results published in patent publication US5132323A, “1,2-diaminocyclohexane-platinum complexes with antitumor activity” (Board of Regents, The University of Texas System, priority 1990, dated 1992).
# Assays:
# [1] = LD50 of DACH-Pt(II) compounds, intraperitoneal; assay type: in vivo; conditions: i.p., CD1 albino mice
# [2] = tested on: L1210/cisplatin; experiment: In vivo antitumor efficacy, L1210/cisplatin; parameters: species or system BDF1 mice; conditions: for % T/C: days 1, 5, 9; for % T/C (mean survival time treated/control × 100): mice inoculated with L1210 cells (Table 6)
# Experimental: (§1) BDF1 mice were inoculated intraperitoneally with 10^5 L121O cells, 0.5 ml of 10% tumor brei or 10^6 M5076 cells using 5 animals in each group. Drug was administered […] on days 1, 5 and 9, except that the group infected with M5076 cells was also injected on day 13. % T/C represents mean survival time treated/mean survival time of the control times 100.
# ^a BDF1 mice were inoculated i.p. with 10^5 L1210 cells. Mic
# received 3 i.p. drug injections days 1, 5, and 9.
# (§2) ^d % T/C = (Mean Survival Time treated/Mean Survival Time control)
# (§3) ^e LTS animals alive 60 days after inoculation of L1210/0 and B16 and […]
# [3] = In vivo renal and hematological toxicity of DACH-Pt(II) compounds; parameters: species or system CD1 albino mice; WBC d.5: unit not given here; conditions: single i.p. LD50 dose; for Body Weight d.5 (% of day 0) / WBC d.5: day 5; for WBC d.5: mean ± S.D.
# Experimental: CD1 albino mice were administered a single intraperitoneal injection of the LD50 dose of each compound using 5 mice in each group. Five days later each mouse was bled under anesthesia from the axillary vessel. Blood urea nitrogen (BUN) and leucopenia were assessed for each sample.
# ^a CD1 Albino mice were administered a single i.p. injection of
# the LD50 dose of each compound (5 mice/cmpd) and bled under
# anesthesia from the axillary vessel 5 days later for blood urea nitrogen
# (BUN) measurement and assessment of leucopenia. Results as presented as […]
# [4] = tested on: L1210; experiment: In vivo antitumor therapy against L1210; parameters: species or system BDF1 mice; conditions: for Long-term Survivors: alive 30 days after tumor inoculation
# [5] = tested on: M5076; experiment: In vivo antitumor efficacy, M5076; parameters: species or system BDF1 mice; conditions: for long term survivor: M5076 inoculation (Table 6); for % T/C (treated/control mean survival time): mice inoculated with M5076 cells (Table 6); for % T/C: days 1, 5, 9, 13; for LTS: alive 90 days after inoculation
# Experimental: as §1
# ^c BDF1 mice were inoculated i.p. with 10^6 M5076 cells. Mic
# received 4 i.p. drug injections on days 1, 5, 9 and 13.
# as §2
# ^e LTS animals alive 60 days after inoculation of L1210/0 and B16 and
# 90 days after inoculation B5076.
# [6] = tested on: wild-type L1210 leukemic cells; experiment: In vitro cytotoxicity, growth inhibition of wild-type L1210 leukemic cells; assay type: cell-based, murine; conditions: 72 hours incubation
# Experimental: Wild-type L1210 leukemic cells were grown as a suspension culture in McCoy's 5A medium supplemented with 10% horse serum, glutamine, streptomycin and penicillin at 37° C., 95% relative humidity and 5% CO2. Four ml of cell suspension (10^5 cells/ml) were added to culture tubes and the appropriate amount of drug was added (to yield 0.01, 0.1, 1 or 10 μg/ml final concentration) to the culture tubes. After 72 hours of incubation, the cell concentration in control and experimental cultures were determined with the aid of the Coulter counter model ZBf and the percent of growth inhibition calculated.
# [7] = tested on: B16 melanoma; experiment: In vivo antitumor efficacy, B16 melanoma; parameters: species or system BDF1 mice; conditions: for % T/C (mean survival time treated/control x 100): mice inoculated with B16 cells (Table 6); for % T/C: days 1, 5, 9
# Experimental: as §1, §2, §3
# [8] = optimal dose 12.5 mg/kg i.p., days 1,5,9
# [9] = optimal dose 50 mg/kg i.p., day 1
# [10] = optimal dose 12.5 mg/kg i.p., days 1-9
# [11] = optimal dose 6.25 mg/kg i.p., days 1,5,9
# [12] = optimal dose 25 mg/kg i.p., days 1,5,9
molecule,measurement,setting,value
CCN1CC(=O)[O][Pt]2([NH]C3CCCCC3[NH]2)[O]C(=O)C1 (stereo not drawn) [Cis-EIDA],LD50,[1],140 mg/kg
same,% T/C,[2]; opt. dose 75 mg/kg i.p.,262%
same,Survivors on d.5,[3],3/5
same,Body Weight d.5 (% of day 0),[3],77 % of day 0
same,WBC d.5,[3],3.25 ± 1.01
"CC(C)CCN(CC(=O)[O-])CC(=O)[O-].N[C@@H]1CCCC[C@H]1N.[Pt+2] [Compound 6, N-isoamyliminodiacetato(trans-R,R-DACH)Pt(II)]",% T/C,[4]; [8],150%
same,% T/C,[4]; [9],145%
"1,1-Cyclobutanedicarboxylato(cis-DACH)Pt(II).11/2H2 O [Compound 13]",long term survivor,[5],5/5
same,% T/C (treated/control mean survival time),[5],400%
same,% T/C,[5]; opt. dose 100 mg/kg i.p.,400%
same,LTS,[5]; opt. dose 100 mg/kg i.p.,5/5
same,Long-term Survivors,"[4]; 12.5 mg/kg i.p., days 1-9",1/6
same,% T/C,[4]; [10],253%
same,LD50,[1],215 mg/kg
same,% T/C (mean survival time treated/control × 100),[2],150%
same,% T/C,[2]; opt. dose 150 mg/kg i.p.,150%
same,ID50,[6],3.30 µg/mL
same,long term survivor,[7]; B16 inoculation (Table 6),1/5
same,% T/C (mean survival time treated/control x 100),[7],200%
same,% T/C,[7]; opt. dose 100 mg/kg i.p.,200%
same,LTS,"[7]; opt. dose 100 mg/kg i.p., alive 60 days after inoculation",1/5
same,Survivors on d.5,[3],5/5
same,Body Weight d.5 (% of day 0),[3],82 % of day 0
same,WBC d.5,[3],1.13 ± 0.28
"Cis-bis-galacturonato(trans-R,R-DACH)Pt(II).2H2 O [Compound 15]",% T/C,[4]; [8],238%
same,ID50,[6],0.90 µg/mL
"CCN(CC(=O)[O-])CC(=O)[O-].N[C@@H]1CCCC[C@H]1N.O.[Pt+2] (stereo in doubt) [Compound 1, N-ethyliminodiacetato(trans-R,R-DACH)Pt(II).H2 O]",Long-term Survivors,"[4]; 3.15 mg/kg i.p., days 1-9",4/6
same,Long-term Survivors,"[4]; 12.5 mg/kg i.p., days 1,5,9",1/6
same,% T/C,"[4]; optimal dose 3.15 mg/kg i.p., days 1-9",434%
same,% T/C,[4]; [8],324%
same,% T/C,[4]; [9],125%
same,LD50,[1],58 mg/kg
same,% T/C (mean survival time treated/control × 100),[2],324%
same,% T/C,[2]; opt. dose 12.5 mg/kg i.p.,324%
same,ID50,[6],0.73 µg/mL
same,Survivors on d.5,[3],5/5
same,Body Weight d.5 (% of day 0),[3],105 % of day 0
same,WBC d.5,[3],2.3 ± 0.93
"N.N.[Cl][Pt][Cl] [Cisplatin, reference compound]",% T/C,[5]; opt. dose 3 mg/kg i.p.,200%
same,% T/C,[2]; opt. dose 5 mg/kg i.p.,94%
same,% T/C,[7]; opt. dose 3 mg/kg i.p.,139%
"N[C@H]1CCCC[C@@H]1N.O.O.O=C([O-])C1(C(=O)[O-])CCC1.[Pt+2] (stereo in doubt) [Compound 12, 1,1-Cyclobutanedicarboxylato(trans-S,S-DACH)Pt(II).2H2 O]",% T/C (treated/control mean survival time),[5],231%
same,% T/C,[5]; opt. dose 50 mg/kg i.p.,231%
same,LTS,[5]; opt. dose 50 mg/kg i.p.,1/5
same,% T/C,[4]; [10],120%
same,LD50,[1],230 mg/kg
same,% T/C (mean survival time treated/control × 100),[2],176%
same,% T/C,[2]; opt. dose 100 mg/kg i.p.,176%
same,ID50,[6],1.65 µg/mL
same,% T/C (mean survival time treated/control x 100),[7],104%
same,% T/C,[7]; opt. dose 50 mg/kg i.p.,104%
same,Survivors on d.5,[3],3/5
same,Body Weight d.5 (% of day 0),[3],114 % of day 0
same,WBC d.5,[3],3.42 ± 1.93
"CN(C)CC(=O)[O-].CN(C)CC(=O)[O-].N[C@@H]1CCCC[C@H]1N.O.O.[Pt+2] (stereo in doubt) [Compound 16, Cis-bis-N,N-dimethylglycinato(trans-R,R-DACH)Pt(II).2H2 O]",ID50,[6],3.5 µg/mL
"N[C@@H]1CCCC[C@H]1N.O.O=C([O-])C1(C(=O)[O-])CC1.[Pt+2] (stereo in doubt) [Compound 14, 1,l-Cyclopropanedicarboxylato(trans-R,R-DACH)Pt(II).H2 O]",ID50,[6],0.66 µg/mL
"N.N.O=C([O-])C1(C(=O)[O-])CCC1.[Pt+2] [Carboplatin, reference compound]",% T/C,[5]; opt. dose 40 mg/kg i.p.,150%
same,LD50,[1],105 mg/kg
same,% T/C,[2]; opt. dose 90 mg/kg i.p.,121%
same,Survivors on d.5,[3],5/5
same,Body Weight d.5 (% of day 0),[3],95 % of day 0
"CCC(C)N(CC(=O)[O-])CC(=O)[O-].N[C@@H]1CCCC[C@H]1N.O.O.[Pt+2] (stereo not drawn) [Compound 7, N-sec-butyliminodiacetato(trans-R,R-DACH)Pt(II).2H2 O]",Long-term Survivors,"[4]; 6.25 mg/kg i.p., days 1,5,9",2/6
same,% T/C,[4]; [11],282%
same,ID50,[6],0.65 µg/mL
"CCCN(CC(=O)[O-])CC(=O)[O-].N[C@@H]1CCCC[C@H]1N.O.O.[Pt+2] [Compound 2, N-propyliminodiacetato(trans-R,R-DACH)Pt(II).2H2 O]",% T/C,"[4]; optimal dose 56 mg/kg i.p., day 1",129%
same,ID50,[6],0.75 µg/mL
"CC(C)(C)N(CC(=O)[O-])CC(=O)[O-].N[C@@H]1CCCC[C@H]1N.O.O.O.[Pt+2] [Compound 8, N-ter-butyliminodiacetato(trans-R,R-DACH)Pt(II).3H2 O]",Long-term Survivors,"[4]; 6.25 mg/kg i.p., days 1,5,9",1/6
same,% T/C,[4]; [11],271%
"CCCCN(CC(=O)[O-])CC(=O)[O-].N[C@@H]1CCCC[C@H]1N.O.O.[Pt+2] [Compound 3, N-butyliminodiacetato(trans-R,R-DACH)Pt(II).2H2 O]",Long-term Survivors,"[4]; 12.5 mg/kg i.p., days 1,5,9",2/6
same,% T/C,"[4]; optimal dose 12.5 mg/kg i.p., day 1",147%
same,% T/C,[4]; [8],318%
same,ID50,[6],0.74 µg/mL
"N-isopropyliminodiacetato(trans-R,R-DACH)Pt(II).2H2 O [Compound 5]",Long-term Survivors,"[4]; 12.5 mg/kg i.p., days 1,5,9",1/6
same,% T/C,[4]; [8],324%
same,% T/C,[4]; [9],155%
same,ID50,[6],0.85 µg/mL
"N[C@@H]1CCCC[C@H]1N.O.O.O=C([O-])CN(O)CC(=O)[O-].[Pt+2] (stereo in doubt) [Compound 9, N-hydroxyliminodiacetato(trans-R,R-DACH)Pt(II).2H2 O]",% T/C,[4]; [12],265%
same,% T/C,[4]; [9],156%
same,ID50,[6],0.76 µg/mL
"CCN1CC(=O)[O][Pt]2([NH]C3CCCCC3[NH]2)[O]C(=O)C1 (stereo not shown) [S,S-EIDA]",LD50,[1],95 mg/kg
same,% T/C,[2]; opt. dose 25 mg/kg i.p.,344%
same,Survivors on d.5,[3],5/5
same,Body Weight d.5 (% of day 0),[3],100 % of day 0
same,WBC d.5,[3],2.63 ± 0.96
"1,1-Cyclobutanedicarboxylato(trans-R,R-DACH)Pt(II).1 1/2H2 O [Compound 11]",long term survivor,[5],one
same,% T/C (treated/control mean survival time),[5],220%
same,% T/C,[5]; opt. dose 50 mg/kg i.p.,220%
same,LTS,[5]; opt. dose 50 mg/kg i.p.,1/5
same,Long-term Survivors,"[4]; 6.25 mg/kg i.p., days 1-9",3/6
same,% T/C,"[4]; optimal dose 6.25 mg/kg i.p., days 1-9",398%
same,% T/C,[4]; [8],140%
same,% T/C,[4]; [9],147%
same,LD50,[1],280 mg/kg
same,% T/C (mean survival time treated/control × 100),[2],118%
same,% T/C,[2]; opt. dose 150 mg/kg i.p.,118%
same,% T/C (mean survival time treated/control x 100),[7],104%
same,% T/C,[7]; opt. dose 50 mg/kg i.p.,104%
same,Survivors on d.5,[3],5/5
same,Body Weight d.5 (% of day 0),[3],121 % of day 0
same,WBC d.5,[3],3.44 ± 1.55
"CC(=CC(=O)[O-])C(=O)[O-].NC1CCCCC1N.O.[Pt+2] [Compound 10, Citraconato(trans-R,R-DACH)Pt(II).1H2 O]",% T/C,[4]; [12],200%
same,ID50,[6],5.00 µg/mL
"CCCCCN(CC(=O)[O-])CC(=O)[O-].N[C@@H]1CCCC[C@H]1N.O.[Pt+2] [Compound 4, N-amyliminodiacetato(trans-R,R-DACH)Pt(II).H2 O]",Long-term Survivors,"[4]; 25 mg/kg i.p., days 1,5,9",2/6
same,% T/C,[4]; [12],227%
same,% T/C,[4]; [9],158%
same,ID50,[6],3.00 µg/mL
